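Tested at 5 concentrations; 48 h exposure; 96-well plates; endpoints linearly interpolated, else capped at highest concentration. Abbreviation: GI50, concentration required for 50% inhibition of growth.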 Activity calls are given as the source filed them. Cut-off read from the data, not from the text of the source: active = GI50 up to about 1.1 µM and inactive = higher.
Experiments:
Assay in all cases: NCI-60 cell line screen, 48 h
786-0 = system: 786-0
A549 = system: A549
ACHN = system: ACHN
CAKI-1 = system: CAKI-1
CCRF-CEM = system: CCRF-CEM
COLO 205 = system: COLO 205
DLD-1 = system: DLD-1
DMS-114 = system: DMS-114
DMS-273 = system: DMS-273
EKVX = system: EKVX
HCC 2998 = system: HCC 2998
HCT-116 = system: HCT-116
HCT-15 = system: HCT-15
HL-60 = system: HL-60
HOP-18 = system: HOP-18
HOP-62 = system: HOP-62
HT-29 = system: HT-29
IGROV-1 = system: IGROV-1
K562 = system: K562
KM-20L2 = system: KM-20L2
KM12 = system: KM12
LOX IMVI = system: LOX IMVI
LXFL 529 = system: LXFL 529
M14 = system: M14
M19-MEL = system: M19-MEL
MOLT-4 = system: MOLT-4
Malme-3M = system: Malme-3M
NCI-H226 = system: NCI-H226
NCI-H23 = system: NCI-H23
NCI-H460 = system: NCI-H460
NCI-H522 = system: NCI-H522
OVCAR-3 = system: OVCAR-3
OVCAR-4 = system: OVCAR-4
OVCAR-8 = system: OVCAR-8
RPMI-8226 = system: RPMI-8226
RXF 393 = system: RXF 393
SF-268 = system: SF-268
SF-295 = system: SF-295
SF-539 = system: SF-539
SK-MEL-28 = system: SK-MEL-28
SK-MEL-2 = system: SK-MEL-2
SK-MEL-5 = system: SK-MEL-5
SK-OV-3 = system: SK-OV-3
SN12C = system: SN12C
SNB-19 = system: SNB-19
SNB-75 = system: SNB-75
SNB-78 = system: SNB-78
SR = system: SR
SW-620 = system: SW-620
TK-10 = system: TK-10
U-251 = system: U-251
UACC-257 = system: UACC-257
UACC-62 = system: UACC-62
UO-31 = system: UO-31
XF498 = system: XF498
A498 = system: A498
HOP-92 = system: HOP-92
OVCAR-5 = system: OVCAR-5

Q: Which results are given for `Cc1nc(N2N=C(c3ccc(Cl)cc3)CCC2=O)sc1[N+](=O)[O-]`?
A: GI50 (786-0): > 100 µM (inactive); GI50 (A549): > 100 µM (inactive); GI50 (ACHN): > 100 µM (inactive); GI50 (CAKI-1): > 100 µM (inactive); GI50 (CCRF-CEM): > 100 µM (inactive); GI50 (COLO 205): > 100 µM (inactive); GI50 (DLD-1): > 100 µM (inactive); GI50 (DMS-114): > 100 µM (inactive); GI50 (DMS-273): > 100 µM (inactive); GI50 (EKVX): 67.6 µM (inactive); GI50 (HCC 2998): > 100 µM (inactive); GI50 (HCT-116): > 100 µM (inactive); GI50 (HCT-15): > 100 µM; GI50 (HL-60): > 100 µM (inactive); GI50 (HOP-18): > 100 µM (inactive); GI50 (HOP-62): > 100 µM (inactive); GI50 (HT-29): > 100 µM (inactive); GI50 (IGROV-1): > 100 µM (inactive); GI50 (K562): > 100 µM (inactive); GI50 (KM-20L2): > 100 µM (inactive); GI50 (KM12): > 100 µM (inactive); GI50 (LOX IMVI): > 100 µM (inactive); GI50 (LXFL 529): > 100 µM (inactive); GI50 (M14): > 100 µM (inactive); GI50 (M19-MEL): > 100 µM (inactive); GI50 (MOLT-4): > 100 µM (inactive); GI50 (Malme-3M): > 100 µM (inactive); GI50 (NCI-H226): > 100 µM (inactive); GI50 (NCI-H23): > 100 µM (inactive); GI50 (NCI-H460): > 100 µM (inactive); GI50 (NCI-H522): > 100 µM (inactive); GI50 (OVCAR-3): > 100 µM (inactive); GI50 (OVCAR-4): > 100 µM (inactive); GI50 (OVCAR-8): > 100 µM (inactive); GI50 (RPMI-8226): > 100 µM (inactive); GI50 (RXF 393): > 100 µM (inactive); GI50 (SF-268): > 100 µM (inactive); GI50 (SF-295): > 100 µM (inactive); GI50 (SF-539): > 100 µM (inactive); GI50 (SK-MEL-28): > 100 µM (inactive); GI50 (SK-MEL-2): > 100 µM (inactive); GI50 (SK-MEL-5): > 100 µM (inactive); GI50 (SK-OV-3): > 100 µM (inactive); GI50 (SN12C): > 100 µM (inactive); GI50 (SNB-19): > 100 µM (inactive); GI50 (SNB-75): > 100 µM (inactive); GI50 (SNB-78): > 100 µM (inactive); GI50 (SR): > 100 µM (inactive); GI50 (SW-620): > 100 µM (inactive); GI50 (TK-10): > 100 µM (inactive); GI50 (U-251): > 100 µM (inactive); GI50 (UACC-257): > 100 µM (inactive); GI50 (UACC-62): > 100 µM (inactive); GI50 (UO-31): > 100 µM (inactive); GI50 (XF498): > 100 µM (inactive)

Q: Which results are given for `CC(c1ccccc1)/[N+]([O-])=C/c1ccccc1` (stereo unspecified)?
A: GI50 (A498): > 100 µM (inactive); GI50 (A549): > 100 µM (inactive); GI50 (ACHN): > 100 µM (inactive); GI50 (CCRF-CEM): > 100 µM (inactive); GI50 (COLO 205): > 100 µM (inactive); GI50 (DLD-1): > 100 µM (inactive); GI50 (DMS-114): > 100 µM (inactive); GI50 (DMS-273): > 100 µM (inactive); GI50 (EKVX): > 100 µM (inactive); GI50 (HCC 2998): > 100 µM (inactive); GI50 (HCT-116): > 100 µM (inactive); GI50 (HL-60): > 100 µM (inactive); GI50 (HOP-18): 34.9 µM (inactive); GI50 (HOP-62): > 100 µM (inactive); GI50 (HOP-92): > 100 µM (inactive); GI50 (HT-29): > 100 µM (inactive); GI50 (IGROV-1): > 100 µM (inactive); GI50 (K562): > 100 µM (inactive); GI50 (KM-20L2): > 100 µM (inactive); GI50 (KM12): > 100 µM (inactive); GI50 (LOX IMVI): > 100 µM (inactive); GI50 (LXFL 529): > 100 µM (inactive); GI50 (M19-MEL): > 100 µM (inactive); GI50 (MOLT-4): > 100 µM (inactive); GI50 (NCI-H23): > 100 µM (inactive); GI50 (NCI-H460): > 100 µM (inactive); GI50 (NCI-H522): > 100 µM (inactive); GI50 (OVCAR-3): > 100 µM (inactive); GI50 (OVCAR-5): > 100 µM (inactive); GI50 (OVCAR-8): > 100 µM (inactive); GI50 (RPMI-8226): > 100 µM (inactive); GI50 (RXF 393): > 100 µM (inactive); GI50 (SF-268): > 100 µM (inactive); GI50 (SF-295): > 100 µM (inactive); GI50 (SF-539): > 100 µM (inactive); GI50 (SK-MEL-28): > 100 µM (inactive); GI50 (SK-OV-3): > 100 µM (inactive); GI50 (SNB-19): > 100 µM (inactive); GI50 (SNB-75): > 100 µM (inactive); GI50 (SNB-78): > 100 µM (inactive); GI50 (SW-620): > 100 µM (inactive); GI50 (TK-10): > 100 µM (inactive); GI50 (U-251): > 100 µM (inactive); GI50 (UACC-257): > 100 µM (inactive); GI50 (UO-31): > 100 µM (inactive); GI50 (XF498): > 100 µM (inactive)
